Reference: the supplement of paper PMC10307832

How the values were obtained:
Test in all cases: relative viability (nuclei count vs DMSO), 5 days (fraction); higher = more cells survive
Halofuginone = compound: O=C(C[C@H]1NCCC[C@@H]1O)Cn1cnc2cc(Br)c(Cl)cc2c1=O (racemic) [Halofuginone]
Outline: (§1)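 Lung cancer cell lines were seeded into 1536-well plates, kept overnight at 37 °C and pinned with five library-drug doses (not always all listed) spaced by √10. After 5 days, nuclei were Hoechst-stained, imaged at 4× and counted with MetaXpress. Viability is treated-well nuclei over vehicle-well nuclei, taken as a median across plates. Plates needed control CV below 25% and at least one doubling.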

Cediranib = compound: COc1cc2c(Oc3ccc4[nH]c(C)cc4c3F)ncnc2cc1OCCCN1CCCC1 [Cediranib]
Outline: as §1

Decitabine = compound: Nc1ncn([C@H]2C[C@H](O)[C@@H](CO)O2)c(=O)n1 [Decitabine]
Outline: as §1

| Cell Line | relative viability (Halofuginone; 0.001 µM) | relative viability (Halofuginone; 0.003162 µM) | relative viability (Halofuginone; 0.01 µM) | relative viability (Halofuginone; 0.03162 µM) | relative viability (Halofuginone; 0.1 µM) | relative viability (Cediranib; 0.04 µM) | relative viability (Cediranib; 0.1265 µM) | relative viability (Cediranib; 0.4 µM) | relative viability (Cediranib; 1.265 µM) | relative viability (Cediranib; 4 µM) | relative viability (Decitabine; 0.04 µM) | relative viability (Decitabine; 0.1265 µM) | relative viability (Decitabine; 0.4 µM) | relative viability (Decitabine; 1.265 µM) | relative viability (Decitabine; 2 µM, anchor plate) | relative viability (Decitabine; 4 µM) |
| --- | --- | --- | --- | --- | --- | --- | --- | --- | --- | --- | --- | --- | --- | --- | --- | --- |
| NCI-H1355 | 0.989 | 1.02 | 0.94 | 0.941 | 0.899 | 0.944 | 1.04 | 0.898 | 0.944 | 1.06 | 0.768 | 0.643 | 0.42 | 0.338 | 0.362 | 0.278 |
| NCI-H1395 | 0.984 | 0.872 | 0.809 | 0.868 | 0.768 | 0.885 | 0.832 | 0.887 | 0.884 | 0.993 | 0.627 | 0.671 | 0.729 | 0.508 | 0.744 | 0.528 |
| NCI-H1437 | 0.976 | 1.02 | 1.01 | 0.984 | 0.845 | 1.08 | 0.969 | 0.998 | 0.972 | 1.06 | 0.744 | 0.73 | 0.542 | 0.424 | 0.557 | 0.425 |
| NCI-H1563 | 1.02 | 1.06 | 0.885 | 0.664 | 0.486 | 0.97 | 1.39 | 1.03 | 0.961 | 1.13 | 1.07 | 1.04 | 1.43 | 0.986 |  | 1.03 |
| NCI-H1623 | 0.947 | 0.873 | 0.966 | 1.07 | 0.875 | 1 | 0.599 | 0.879 | 1.04 | 1.07 | 0.864 | 0.749 | 0.664 | 0.52 |  | 0.516 |
| NCI-H1648 | 1.12 | 0.809 | 1.06 | 0.951 | 1.13 | 0.627 | 0.423 | 0.71 | 0.773 | 0.791 | 0.82 | 0.733 | 0.474 | 0.387 | 0.509 | 0.366 |
| NCI-H1650 | 1 | 1.01 | 0.883 | 0.811 | 0.19 | 1 | 0.962 | 0.833 | 0.8 | 0.822 | 0.599 | 0.657 | 0.507 | 0.346 | 0.422 | 0.338 |
| NCI-H1651 | 0.983 | 1.14 | 0.966 | 0.934 | 0.735 | 0.977 | 0.963 | 0.96 | 0.951 | 0.999 | 0.954 | 1.01 | 0.961 | 0.799 | 0.64 | 0.767 |
| NCI-H1666 | 0.993 | 0.936 | 0.991 | 1.06 | 0.991 | 1.02 | 1.18 | 0.989 | 1.01 | 1.02 | 0.938 | 0.9 | 0.866 | 0.827 | 0.764 | 0.851 |
| NCI-H1703 | 0.931 | 0.994 | 0.886 | 0.668 | 0.519 | 0.819 | 0.677 | 0.471 | 0.363 | 0.393 | 0.772 | 0.669 | 0.288 | 0.332 |  | 0.246 |
| NCI-H1734 | 1 | 1.06 | 0.985 | 0.984 | 0.751 | 0.897 | 0.951 | 0.96 | 0.821 | 1.09 | 0.804 | 0.829 | 0.69 | 0.498 | 0.517 | 0.363 |
| NCI-H1755 | 1.02 | 1.04 | 1.01 | 1.01 | 0.978 | 1.1 | 0.861 | 0.954 | 1.05 | 1.01 | 0.95 | 0.949 | 0.848 | 0.598 | 0.717 | 0.515 |
| NCI-H1792 | 0.923 | 0.897 | 0.902 | 0.913 | 0.633 | 0.862 | 0.846 | 0.84 | 0.931 | 0.795 | 0.802 | 0.857 | 0.889 | 0.534 | 0.526 | 0.507 |
| NCI-H1793 | 1.01 | 0.811 | 0.904 | 1.04 | 0.557 | 0.786 | 0.891 | 0.704 |  | 0.978 | 0.715 | 0.756 | 0.707 | 0.498 | 0.547 | 0.398 |
| NCI-H1915 | 0.957 | 1.13 | 0.959 | 0.998 | 0.943 | 0.969 | 0.832 | 0.96 | 1.04 | 0.996 | 0.502 | 0.421 | 0.329 | 0.26 | 0.265 | 0.292 |
| NCI-H1944 | 0.962 | 0.951 | 0.918 | 0.963 | 0.922 | 0.93 | 0.955 | 0.918 | 0.883 | 0.936 | 0.9 | 0.869 | 0.541 | 0.381 | 0.429 | 0.441 |
| NCI-H1975 | 1.05 | 0.943 | 0.953 | 0.692 | 0.442 | 0.974 | 0.983 | 0.914 | 0.956 | 0.939 | 0.594 | 0.526 | 0.372 | 0.352 | 0.394 | 0.358 |
| NCI-H1993 | 1.23 | 0.978 | 0.893 | 1.11 | 0.749 | 0.73 | 0.878 | 0.857 | 0.726 | 0.87 | 0.863 | 0.844 | 0.929 | 0.755 | 0.596 | 0.757 |

| Cell Line | relative viability (Halofuginone; 0.001 µM) | relative viability (Halofuginone; 0.003162 µM) | relative viability (Halofuginone; 0.01 µM) | relative viability (Halofuginone; 0.03162 µM) | relative viability (Halofuginone; 0.1 µM) | relative viability (Cediranib; 0.04 µM) | relative viability (Cediranib; 0.1265 µM) | relative viability (Cediranib; 0.4 µM) | relative viability (Cediranib; 1.265 µM) | relative viability (Cediranib; 4 µM) | relative viability (Decitabine; 0.04 µM) | relative viability (Decitabine; 0.1265 µM) | relative viability (Decitabine; 0.4 µM) | relative viability (Decitabine; 1.265 µM) | relative viability (Decitabine; 2 µM, anchor plate) | relative viability (Decitabine; 4 µM) |
| --- | --- | --- | --- | --- | --- | --- | --- | --- | --- | --- | --- | --- | --- | --- | --- | --- |
| NCI-H2009 | 1.04 | 1.18 | 0.948 | 0.883 | 0.597 | 1.01 | 0.958 | 0.984 | 0.988 | 1.1 | 0.837 | 0.706 | 0.504 | 0.349 | 0.387 | 0.343 |
| NCI-H2023 | 0.98 | 1.05 | 0.931 | 0.516 | 0.082 | 1 | 1.02 | 0.902 | 0.878 | 1.19 | 0.678 | 0.516 | 0.249 | 0.206 | 0.227 | 0.172 |
| NCI-H2085 | 1.03 | 1.07 | 0.989 | 1.04 | 0.935 | 1 | 1.08 | 0.946 | 0.99 | 0.97 | 0.812 | 0.768 | 0.65 | 0.528 | 0.559 | 0.528 |
| NCI-H2087 | 1.09 | 1.21 | 0.975 | 0.886 | 0.836 | 1.09 | 1.18 | 0.776 | 1.14 | 1.27 | 0.574 | 0.567 | 0.561 | 0.296 | 0.294 | 0.367 |
| NCI-H2126 | 1.02 | 0.992 | 0.949 | 0.968 | 0.88 | 0.971 | 0.987 | 0.955 | 0.809 | 0.957 | 0.906 | 0.958 | 0.709 | 0.633 | 0.573 | 0.582 |
| NCI-H2170 | 0.988 | 1.05 | 0.917 | 0.982 | 0.991 | 1 | 0.764 | 0.983 | 0.828 | 1.03 | 0.839 | 0.746 | 0.685 | 0.475 | 0.471 | 0.473 |
| NCI-H2228 | 0.966 | 0.995 | 0.981 | 0.642 | 0.194 | 1.18 | 1.08 | 0.763 | 1.06 | 1.13 | 0.665 | 0.539 | 0.426 | 0.283 |  | 0.275 |
| NCI-H2342 | 1.07 | 0.956 | 0.961 | 0.963 | 0.95 | 1 | 1.1 | 0.899 | 0.746 | 1.07 | 0.977 | 1.05 | 0.97 | 0.671 | 0.745 | 0.645 |
| NCI-H2347 | 1.08 | 1.01 | 1.02 | 1.02 | 0.886 | 1.02 | 0.84 | 0.983 | 1.02 | 1.11 | 0.885 | 0.887 | 0.697 | 0.6 | 0.587 | 0.66 |
| NCI-H2405 | 1.16 | 1.03 | 1.01 | 0.96 | 0.876 | 0.999 | 0.914 | 0.994 | 1 | 1.02 | 0.898 | 0.903 | 0.758 | 0.596 | 0.745 | 0.49 |
| NCI-H3122 | 1 | 0.984 | 0.968 | 0.941 | 0.95 | 1.09 | 0.765 | 0.977 | 1 | 1.01 | 0.964 | 0.964 | 0.624 | 0.473 | 0.471 | 0.647 |
| PC-3 [JPC-3] | 1.06 | 1.04 | 1.01 | 1.09 | 0.982 | 0.921 | 0.959 | 0.933 | 1.09 | 0.973 |  | 0.85 | 0.537 | 0.611 | 0.847 | 0.627 |
| PC-14 | 1.02 | 1 | 0.93 | 0.639 | 0.348 | 1.06 | 1.08 | 0.959 | 0.931 | 0.998 | 0.393 | 0.449 | 0.156 | 0.149 | 0.218 | 0.163 |
| RERF-LC-KJ | 1.08 | 1.07 | 0.951 | 0.966 | 0.912 | 1.01 | 0.862 | 0.946 | 0.963 | 1.05 | 0.951 | 0.967 | 0.561 | 0.688 | 0.728 | 0.642 |
| SK-LU-1 | 1.09 | 1.05 | 1.04 | 1.05 | 0.588 | 1.12 | 1.02 | 0.957 | 0.924 | 1.11 | 0.788 | 0.703 | 0.46 | 0.482 | 0.631 | 0.411 |
| SK-MES-1 | 1.04 | 1.05 | 0.978 | 0.827 | 0.271 | 1.06 | 1.12 | 0.961 | 0.967 | 1.09 | 0.827 | 0.707 | 0.461 | 0.339 | 0.378 | 0.305 |
| SW 900 | 0.911 | 0.888 | 0.664 | 1.02 | 0.569 | 0.811 | 0.774 | 0.737 | 0.835 | 0.952 | 0.465 | 0.477 | 0.298 | 0.25 | 0.433 | 0.265 |
| SW 1573 | 1.08 | 1.06 | 0.908 | 0.692 | 0.278 | 1.01 | 0.974 | 0.969 | 0.828 | 0.927 | 0.815 | 0.944 | 0.732 | 0.486 | 0.504 | 0.379 |
